Source: US10023593B2, “ALK kinase inhibitor, and preparation method and uses thereof” (BEIJING PEARL BIOTECHNOLOGY LIMITED LIABILITY COMPANY, priority 2014, dated 2018)

What was measured:
NCI-H2228 cell line = assay: CellTiter-Glo cell proliferation inhibition on NCI-H2228 cell line; type: cell-based; conditions: Homo sapiens, NCI-H2228, 96 h, NCI-H2228 cells, 5000 cells/well, 4 days drug treatment
In short: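 NCI-H2228 cells, 5000/well in RPMI-1640 + 10% FBS, treated with compounds 2 h after seeding (0.5% DMSO final) for 4 days at 37° C. Viability by CellTiter-Glo luminescence; inhibition relative to DMSO control, IC50 from curve fit.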

L1196M mutant ALK kinase = biological target: T1, L1196M mutant ALK kinase (Homo sapiens, UniProt Q9UM73, L1196M); assay: HTRF KinEASE-TK assay, inhibitory activity on L1196M mutant ALK kinase; type: biochemical; conditions: L1196M mutant ALK 1 ng/μl, substrate 1 μM, ATP 5 μM, 30° C. 35 minutes, read-out: Inhibition on ALK kinases (L1196M mutant), IC50
T1 construct: purchased Sino-US Crown Bioscience, Inc. batch number ALKm_20110923
T1 sequence (Q9UM73 19-1620 L1196M): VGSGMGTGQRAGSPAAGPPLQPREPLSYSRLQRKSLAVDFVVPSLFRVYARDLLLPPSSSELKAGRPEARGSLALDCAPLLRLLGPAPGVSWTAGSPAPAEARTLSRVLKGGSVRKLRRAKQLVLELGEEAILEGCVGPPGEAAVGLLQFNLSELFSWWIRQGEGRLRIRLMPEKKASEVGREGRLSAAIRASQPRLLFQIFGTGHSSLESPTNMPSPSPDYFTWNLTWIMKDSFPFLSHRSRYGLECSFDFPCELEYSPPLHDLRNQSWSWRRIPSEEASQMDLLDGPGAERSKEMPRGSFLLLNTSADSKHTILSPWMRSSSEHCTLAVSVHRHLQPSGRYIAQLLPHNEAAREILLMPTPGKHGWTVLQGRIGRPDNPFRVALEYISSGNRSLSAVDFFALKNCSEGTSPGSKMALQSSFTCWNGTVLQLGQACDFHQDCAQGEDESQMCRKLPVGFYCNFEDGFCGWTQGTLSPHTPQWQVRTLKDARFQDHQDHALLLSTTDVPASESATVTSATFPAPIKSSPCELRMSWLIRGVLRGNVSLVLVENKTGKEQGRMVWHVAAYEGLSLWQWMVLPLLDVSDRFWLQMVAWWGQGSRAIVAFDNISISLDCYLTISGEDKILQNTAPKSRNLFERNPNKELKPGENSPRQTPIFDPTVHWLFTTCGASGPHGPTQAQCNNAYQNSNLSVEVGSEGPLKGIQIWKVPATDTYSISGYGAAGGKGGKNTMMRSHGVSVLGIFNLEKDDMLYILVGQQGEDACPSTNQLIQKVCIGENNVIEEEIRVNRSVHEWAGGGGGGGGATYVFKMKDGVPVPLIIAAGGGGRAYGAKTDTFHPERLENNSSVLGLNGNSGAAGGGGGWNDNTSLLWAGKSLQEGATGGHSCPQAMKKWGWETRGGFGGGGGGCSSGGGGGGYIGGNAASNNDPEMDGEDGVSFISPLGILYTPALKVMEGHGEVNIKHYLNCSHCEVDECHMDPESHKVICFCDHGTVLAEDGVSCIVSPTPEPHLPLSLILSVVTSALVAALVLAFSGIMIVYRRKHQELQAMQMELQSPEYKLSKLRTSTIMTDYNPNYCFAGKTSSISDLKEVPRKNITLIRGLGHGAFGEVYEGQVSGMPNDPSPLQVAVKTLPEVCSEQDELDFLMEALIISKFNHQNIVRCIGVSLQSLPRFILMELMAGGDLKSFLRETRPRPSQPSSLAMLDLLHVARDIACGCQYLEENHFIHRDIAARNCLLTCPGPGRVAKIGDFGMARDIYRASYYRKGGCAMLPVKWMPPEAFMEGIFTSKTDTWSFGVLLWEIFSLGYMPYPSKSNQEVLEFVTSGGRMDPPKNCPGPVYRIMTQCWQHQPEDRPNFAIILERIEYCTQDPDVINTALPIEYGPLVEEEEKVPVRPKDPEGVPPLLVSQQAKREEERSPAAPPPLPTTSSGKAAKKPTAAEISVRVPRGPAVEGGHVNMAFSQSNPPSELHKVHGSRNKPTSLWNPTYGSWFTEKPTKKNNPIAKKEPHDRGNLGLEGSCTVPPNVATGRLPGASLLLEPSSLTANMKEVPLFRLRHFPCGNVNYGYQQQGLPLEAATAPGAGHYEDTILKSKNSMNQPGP
Excerpt: 2. Inhibitory Activities of the Compounds of the Present Invention on L1196M Mutant ALK Kinases
? experimental method ? HTRF KinEASE™-TK Assay kit from Cisbio company was used to detect inhibitory activities of the compounds on L1196M mutant ALK kinases.
? instrument ? Envision 2104 plate reader from PerKinElmer company.
? experiment material ? HTRF KinEASE™-TK Assay Kit (Cisbio company, catalog No. 62TK0PEC); L1196M mutant ALK kinase (produced by Sino-US Crown Bioscience, Inc., batch number ALKm_20110923); DTT (Gibco BRL company, catalog No. 15508-012); MgCl2 (Sigma Aldrich company, catalog No. M-2670); ATP (Sigma Aldrich company, catalog No. A-7699, batch number 051M7014V); DMSO (AMRESCO company, catalog No. 0231); EDTA (AMRESCO company, catalog No. 0105); 96 wells plates (for diluting compounds) (CITOTEST company, catalog No. Ref36020096D); OptiPlate™-384 (White), PerkinElmer company, catalog No. P12-004)
? experimental condition ? Compounds (the final concentration of DMSO was 1%), the reaction substrate (the final concentration was 1 μM), ATP (the final concentration was 5 μM), and L1196M mutant ALK kinases (the final concentration was 1 ng/μl) were mixed respectively in a final volume of 10 μl reaction system (containing 5 mM MgCl2, 1× Kinase buffer, and 1 mM DTT). The mixture was reacted at 30° C. for 35 minutes after shaking for 30 seconds. After completion of the reaction, each well was added with 5 μl Sa-XL665 and 5 μl TK Antibody-Eu(K), and placed in the dark for 60 minutes to end the reaction after uniform mixing. The data was read from PerkinElmer EnVision plate reader ([…]), the 665/615 ratio was calculated, and the data was analyzed.
? tested samples ? Compounds from the examples.
? data analysis ? Minimum 665/615 ratio (Rmin, 665/615 ratio under the condition that 10.4 μM positive control drug LDK-378 was added)
Maximum 665/615 ratio (Rmax, 665/615 ratio under the condition that no compound was added)
Tested 665/615 ratio (Rcompound, 665/615 ratio under the condition that a given concentration of compound was added) Inhibition rate (%)=[1−(Rcompound−Rmin)/(Rmax−Rmin)]×100
? data processing ? IC50 of compounds was calculated by using XLfit program in Excel.

Row | SMILES | IC50 (NCI-H2228 cell line) [nM] | IC50 (L1196M mutant ALK kinase) [nM]
1 | Cc1cc(Nc2ncc(Cl)c(Nc3cn(C)nc3S(=O)(=O)C(C)C)n2)c(OC(C)C)cc1C1CNC1 [Final product 4] | 288 | 13
2 | Cc1cc(Nc2ncc(Cl)c(Nc3cn(C4CC4)nc3S(=O)(=O)C(C)C)n2)c(OC(C)C)cc1C1CCNCC1 [Final product 5] | 248 | 12
3 | Cc1cc(Nc2ncc(Cl)c(Nc3cn(C)nc3S(=O)(=O)CC(C)C)n2)c(OC(C)C)cc1C1CCNCC1 [Final product 6] | 193 | 7
4 | CCC(C)S(=O)(=O)c1nn(C)cc1Nc1nc(Nc2cc(C)c(C3CCNCC3)cc2OC(C)C)ncc1Cl (stereo not shown) [Final product 7] | 224 | 12
5 | Cc1cc(Nc2ncc(Cl)c(Nc3cn(C)nc3S(=O)(=O)C(C)C)n2)c(OC(CF)CF)cc1C1CCNCC1 [Final product 8] | 562 | 10
6 | CC(C)S(=O)(=O)c1nn(C)cc1Nc1nc(Nc2ccc(C3CCNCC3)cc2OC(F)(F)F)ncc1Cl [Final product 9] | 652 | 35
7 | Cc1cc(Nc2ncc(Cl)c(Nc3cn(C)nc3S(=O)(=O)C(C)C)n2)c(OC(F)(F)F)cc1C1CCNCC1 [Final product 10] | 188 | 13
8 | Cc1cc(Nc2ncc(Cl)c(Nc3cn(C)nc3S(=O)(=O)C(C)C)n2)c(C(F)(F)F)cc1C1CCNCC1 [Final product 11] | 641 | 39
9 | Cc1cc(Nc2ncc(Cl)c(Nc3cn(C)nc3S(=O)(=O)C(C)C)n2)c(OCC2CC2)cc1C1CCNCC1 [Final product 12] | 262 | 17
10 | CC(C)S(=O)(=O)c1nn(C)cc1Nc1nc(Nc2ccc(C3CCNCC3)cc2OC2CC2)ncc1Cl [Final product 13] | 58 | 7
11 | CC(C)S(=O)(=O)c1nn(C)cc1Nc1nc(Nc2ccc(C3=CCNCC3)cc2OC2CC2)ncc1Cl [Final product 14] | 168 | 6
12 | CC(C)S(=O)(=O)c1nn(C)cc1Nc1nc(Nc2ccc(C3CCNC3)cc2OC2CC2)ncc1Cl (stereo not shown) [Final product 15] | 48 | 5
13 | CC(C)S(=O)(=O)c1nn(C2CC2)cc1Nc1nc(Nc2ccc(C3CCNCC3)cc2OC2CC2)ncc1Cl [Final product 16] | 39 | 7
14 | CC(C)CS(=O)(=O)c1nn(C)cc1Nc1nc(Nc2ccc(C3CCNCC3)cc2OC2CC2)ncc1Cl [Final product 17] | 278 | 13
15 | CC(C)CS(=O)(=O)c1nn(C)cc1Nc1nc(Nc2ccc(C3CCNC3)cc2OC2CC2)ncc1Cl (stereo not shown) [Final product 18] | 157 | 4
16 | CC(C)S(=O)(=O)c1nn(C)cc1Nc1nc(Nc2cc(F)c(C3CCNC3)cc2OC2CC2)ncc1Cl (stereo not shown) [Final product 20] | 384 | 34
17 | CC(C)S(=O)(=O)c1nn(C2CC2)cc1Nc1nc(Nc2cc(F)c(C3CCNCC3)cc2OC2CC2)ncc1Cl [Final product 21] | 62 | 2
18 | CC(C)S(=O)(=O)c1nn(C)cc1Nc1nc(Nc2cc(Cl)c(C3CCNCC3)cc2OC2CC2)ncc1Cl [Final product 22] | 115 | 12
19 | CC(C)S(=O)(=O)c1nn(C2CC2)cc1Nc1nc(Nc2cc(Cl)c(C3CCNCC3)cc2OC2CC2)ncc1Cl [Final product 23] | 107 | 8
20 | Cc1cc(Nc2ncc(Cl)c(Nc3cn(C)nc3S(=O)(=O)C(C)C)n2)c(OC2CC2)cc1C1CCNCC1 [Final product 24] | 122 | 4
21 | Cc1cc(Nc2ncc(Cl)c(Nc3cn(C)nc3S(=O)(=O)C(C)C)n2)c(OC2CC2)cc1C1=CCNCC1 [Final product 25] | 190 | 5
22 | Cc1cc(Nc2ncc(Cl)c(Nc3cn(C)nc3S(=O)(=O)C(C)C)n2)c(OC2CC2)cc1C1CCNC1 (stereo not shown) [Final product 26] | 217 | 6
23 | Cc1cc(Nc2ncc(Cl)c(Nc3cn(C4CC4)nc3S(=O)(=O)C(C)C)n2)c(OC2CC2)cc1C1CCNCC1 [Final product 27] | 168 | 6
